The values that follow come from patent US20240336608A1, “IL4I1 INHIBITORS AND METHODS OF USE” (Merck Sharp & Dohme LLC, priority 2023, published 2024).

The experiment deals with T1, recombinant IL4I1 (Homo sapiens, UniProt Q96RQ9).
T1 construct: purchased R&D Systems 5684-AO-020
T1 sequence (Q96RQ9 22-567): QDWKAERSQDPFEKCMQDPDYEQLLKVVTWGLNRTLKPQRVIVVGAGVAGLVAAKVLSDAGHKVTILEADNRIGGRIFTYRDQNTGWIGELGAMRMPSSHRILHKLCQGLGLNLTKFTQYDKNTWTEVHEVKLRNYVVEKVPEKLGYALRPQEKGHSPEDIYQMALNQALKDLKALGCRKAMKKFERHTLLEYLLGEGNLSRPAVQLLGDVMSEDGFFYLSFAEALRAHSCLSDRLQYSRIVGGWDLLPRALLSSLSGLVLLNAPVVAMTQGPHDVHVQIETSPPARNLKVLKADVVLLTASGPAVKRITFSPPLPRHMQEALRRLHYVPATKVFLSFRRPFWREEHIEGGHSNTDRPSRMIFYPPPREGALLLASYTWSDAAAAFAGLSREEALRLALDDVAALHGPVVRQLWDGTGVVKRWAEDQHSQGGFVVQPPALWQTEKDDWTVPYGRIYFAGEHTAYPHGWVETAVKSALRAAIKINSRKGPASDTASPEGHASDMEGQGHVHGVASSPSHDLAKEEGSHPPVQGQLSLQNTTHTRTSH
Kind of experiment: IL4I1 Enzymatic Assay (Amplex Red/HRP coupled detection of H2O2, fluorescence). The experiment is classed as biochemical. Particulars: 1 nM recombinant IL4I1; four-hour pre-incubation with compound; 1 mM each Phe, Tyr, Trp; ten-point titration. The procedure:
Interleukin 4 inducible protein 1 (IL4I1) is an L-amino oxidase that catalyzes the oxidation of aromatic residues (Phe, Trp and Tyr): L-amino acid+H2O+O2→2-oxo acid+NH3+H2O2. Equal molar of H2O2 and the corresponding alpha-ketoacid are produced when IL4I1 and substrate are added. In this assay, the hydrogen peroxide generated by IL4I1 is then detected through a coupled reaction with Amplex Red (10-acetyl-3,7-dihydroxyphenoxazine) and […] (HRP) to produce Resorufin product that could be detected in the form of fluorescence signals. The assessment of the inhibitory effect of small molecules (EC50) on IL4I1 is measured by the effectiveness of the compounds to inhibit the production of H202.
Using this assay, the potency (EC50) of each compound was determined from a ten-point (1:3 serial dilution) titration curve using the following outlined procedure. To each well of a black flat-bottom Greiner (Cat #781076) 384 well-plate, 125 nL of compound (0.5% DMSO in final assay volume of 25 μL) was dispensed, followed by the addition of 12.5 μL of 1× assay buffer (50 mM Hepes 7.0 and 0.005% Tween20 (Sigma, Cat #P8341; low peroxide grade)) containing 2 nM of recombinant IL4I1 (R&D Systems, Cat #5684-AO-020). Plates were placed in an ambient temperature humidified chamber for a four-hour pre-incubation with compound. Subsequently, each reaction was initiated by the addition of 12.5 μL 1× assay buffer containing 2 mM of each aromatic amino acids (Phe/Tyr/Trp), 0.1 mM Amplex Red and 2 U/mL of HRP. The final reaction in each well of 25 μL consists of 1 nM of IL4I1, 1 mM of each residue (Phe, Tyr and Trp), 0.05 mM Amplex Red and 1 U/mL of HRP. It should be noted that the concentrations of Amplex Red and HRP used here are in excess such that the conversion of H2O2 to Resorufin product occurs instantaneously and non-rate limiting. Reactions were allowed to proceed for 120 minutes followed by fluorescence readout on a Spectramax with the following set parameters: 544 nm excitation/590 nm emission, 570 nm cutoff (EnVision is an alternative reader). Dose-response curves were generated by plotting percent effect (% inhibition; Y-axis) vs. Log10 compound concentrations (X-axis). EC50 values were calculated using a non-linear regression, four-parameters sigmoidal dose-response model and are shown in Table 16.
Consider `O=C(NCc1nnc(-c2ccccc2)s1)c1cn([C@@H]2C[C@@H]2C(F)F)nn1` (single isomer, unassigned) [Example 145, cis-1-(-2-(difluoromethyl)cyclopropyl]-N-[(5-phenyl-1,3,4-thiadiazol-2-yl)methyl]-1H-1,2,3-triazole-4-carboxamide], for which the EC50 is 5 nM.
In the case of `O=C(NCc1nnc(-c2ccccc2)s1)c1cn([C@@H]2C[C@@H]2C(F)F)nn1` (single isomer, unassigned) [Example 146, cis-1-(-2-(difluoromethyl)cyclopropyl]-N-[(5-phenyl-1,3,4-thiadiazol-2-yl)methyl]-1H-1,2,3-triazole-4-carboxamide], the EC50 was 244 nM.
Consider `CC(NC(=O)c1cn(C2CC2)nn1)c1nnc(-c2ccccc2)s1` (single isomer, unassigned) [Example 244, 1-cyclopropyl-N-(1-(5-phenyl-1,3,4-thiadiazol-2-yl)ethyl)-1H-1,2,3-triazole-4-carboxamide], for which the EC50 is 587 nM.
In the case of `CC(NC(=O)c1cn(C2CC2)nn1)c1nnc(-c2ccccc2)s1` (single isomer, unassigned) [Example 245, 1-cyclopropyl-N-(1-(5-phenyl-1,3,4-thiadiazol-2-yl)ethyl)-1H-1,2,3-triazole-4-carboxamide] it was 23 nM.
Consider `CC(NC(=O)c1cn(CC(F)F)nn1)c1nnc(-c2ccccc2)s1` (single isomer, unassigned) [Example 251, 1-(2,2-difluoroethyl)-N-(1-(5-phenyl-1,3,4-thiadiazol-2-yl)ethyl)-1H-1,2,3-triazole-4-carboxamide], for which the EC50 was determined as 84 nM.
In the case of `CC(NC(=O)c1cn(CC(F)F)nn1)c1nnc(-c2ccccc2)s1` (single isomer, unassigned) [Example 252, 1-(2,2-difluoroethyl)-N-(1-(5-phenyl-1,3,4-thiadiazol-2-yl)ethyl)-1H-1,2,3-triazole-4-carboxamide] it was 15 nM; in that of `CC(NC(=O)c1cn(C)nn1)c1nnc(-c2ccccc2)s1` (single isomer, unassigned) [Example 258, 1-methyl-N-(1-(5-phenyl-1,3,4-thiadiazol-2-yl)ethyl)-1H-1,2,3-triazole-4-carboxamide], 492 nM; in that of `CC(NC(=O)c1cn(C)nn1)c1nnc(-c2ccccc2)s1` (single isomer, unassigned) [Example 259, 1-methyl-N-(1-(5-phenyl-1,3,4-thiadiazol-2-yl)ethyl)-1H-1,2,3-triazole-4-carboxamide], 26 nM.
As to `Cc1ccc(-n2cc(C(=O)NC(C)c3nnc(-c4ccccc4)s3)nn2)c(C)n1` (single isomer, unassigned) [Example 262, 1-(2,6-dimethylpyridin-3-yl)-N-(1-(5-phenyl-1,3,4-thiadiazol-2-yl)ethyl)-1H-1,2,3-triazole-4-carboxamide], the EC50 was determined as 85 nM.
As to `Cc1ccc(-n2cc(C(=O)NC(C)c3nnc(-c4ccccc4)s3)nn2)c(C)n1` (single isomer, unassigned) [Example 263, 1-(2,6-dimethylpyridin-3-yl)-N-(1-(5-phenyl-1,3,4-thiadiazol-2-yl)ethyl)-1H-1,2,3-triazole-4-carboxamide], the EC50 came out at 33 nM.
In the case of `CC(C#N)n1cc(C(=O)NCc2cc(-c3ccncc3)on2)nn1` (single isomer, unassigned) [Example 275, 1-(1-cyanoethyl)-N-((5-(pyridin-4-yl)isoxazol-3-yl)methyl)-1H-1,2,3-triazole-4-carboxamide] it was 25 nM; in that of `CC(C#N)n1cc(C(=O)NCc2cc(-c3ccncc3)on2)nn1` (single isomer, unassigned) [Example 276, 1-(1-cyanoethyl)-N-((5-(pyridin-4-yl)isoxazol-3-yl)methyl)-1H-1,2,3-triazole-4-carboxamide], 113 nM.
To `CC(C#N)n1cc(C(=O)NCc2cc(-c3ccncc3)no2)nn1` (single isomer, unassigned) [Example 285, 1-(1-cyanoethyl)-N-((3-(pyridin-4-yl)isoxazol-5-yl)methyl)-1H-1,2,3-triazole-4-carboxamide] belongs 184 nM; to `CC(C#N)n1cc(C(=O)NCc2cc(-c3ccncc3)no2)nn1` (single isomer, unassigned) [Example 286, 1-(1-cyanoethyl)-N-((3-(pyridin-4-yl)isoxazol-5-yl)methyl)-1H-1,2,3-triazole-4-carboxamide], 72 nM.
To `CC(C(N)=O)n1cc(C(=O)NCc2nnc(-c3ccccc3)s2)nn1` (single isomer, unassigned) [Example 318, 1-(1-amino-1-oxopropan-2-yl)-N-((5-phenyl-1,3,4-thiadiazol-2-yl)methyl)-1H-1,2,3-triazole-4-carboxamide] belongs 209 nM; to `CC(C(N)=O)n1cc(C(=O)NCc2nnc(-c3ccccc3)s2)nn1` (single isomer, unassigned) [Example 319, 1-(1-amino-1-oxopropan-2-yl)-N-((5-phenyl-1,3,4-thiadiazol-2-yl)methyl)-1H-1,2,3-triazole-4-carboxamide], 8 nM; to `CC(O)c1cc(C(=O)NCc2nnc(-c3ccccc3)s2)on1` (single isomer, unassigned) [Example 329, 3-(1-hydroxyethyl)-N-((5-phenyl-1,3,4-thiadiazol-2-yl)methyl)isoxazole-5-carboxamide], 149 nM.
With `CC(O)c1cc(C(=O)NCc2nnc(-c3ccccc3)s2)on1` (single isomer, unassigned) [Example 330, 3-(1-hydroxyethyl)-N-((5-phenyl-1,3,4-thiadiazol-2-yl)methyl)isoxazole-5-carboxamide], the EC50 is 69 nM.
For the molecule `Cc1ccc(-n2cc(C(=O)NCc3ccc(-n4nccn4)nn3)nn2)c(C)n1` (single isomer, unassigned) [Example 344, N-((6-(2H-1,2,3-triazol-2-yl)pyridazin-3-yl)methyl)-1-(2,6-dimethylpyridin-3-yl)-1H-1,2,3-triazole-4-carboxamide], the EC50 was determined as 67 nM.
To `Cc1ccc(-n2cc(C(=O)NCc3ccc(-n4ccnn4)nn3)nn2)c(C)n1` (single isomer, unassigned) [Example 345, N-((6-(1H-1,2,3-triazol-1-yl)pyridazin-3-yl)methyl)-1-(2,6-dimethylpyridin-3-yl)-1H-1,2,3-triazole-4-carboxamide] belongs 175 nM.
As to `CC(NC(=O)c1cn(CC(F)F)nn1)c1ccc(-c2ccccc2)nn1` (single isomer, unassigned) [Example 348, 1-(2,2-difluoroethyl)-N-(1-(6-phenylpyridazin-3-yl)ethyl)-1H-1,2,3-triazole-4-carboxamide], the EC50 is 880 nM.
In the case of `CC(NC(=O)c1cn(CC(F)F)nn1)c1ccc(-c2ccccc2)nn1` (single isomer, unassigned) [Example 349, 1-(2,2-difluoroethyl)-N-(1-(6-phenylpyridazin-3-yl)ethyl)-1H-1,2,3-triazole-4-carboxamide] it was 14 nM; in that of `O=C(NCc1nnc(-c2ccccc2)s1)c1cn([C@@H]2COC[C@H]2CO)nn1` (stereo in doubt) [Example 147, 1-[(3S,4R)-4-(hydroxymethyl)oxolan-3-yl]-N-[(5-phenyl-1,3,4-thiadiazol-2-yl)methyl]-1H-1,2,3-triazole-4-carboxamide], 325 nM; in that of `Cc1ccc(-n2cc(C(=O)NCc3nnc(-c4ccccc4)s3)nn2)c(C)n1` [Example 1, 1-(2,6-dimethylpyridin-3-yl)-N-((5-phenyl-1,3,4-thiadiazol-2-yl)methyl)-1H-1,2,3-triazole-4-carboxamide], 15 nM.

A word on the EC50: it is the concentration at which the effect is half-maximal.
